Where two headings read alike, the source gives them in different places. Bridge positions count the residues as written; N and C are the ends. Square brackets hold non-standard residues; d marks the D form. Peptide text beside a SMILES is read from it. * marks the point of attachment. Oic = O=C(O)[C@@H]1C[C@@H]2CCCC[C@@H]2N1; Cha = N[C@@H](CC1CCCCC1)C(=O)O; Tle = CC(C)(C)[C@H](N)C(=O)O; Nicotinoyl = O=C(c1cccnc1)*

Assay [1] concerns the target rhEphB2/Fc (Homo sapiens, UniProt P29323). The assay can be described thus: SPR binding to immobilized rhEphB2/Fc (Biacore 3000). The arrangement: Fc; purchased R&D Systems, Inc., Minneapolis, Minn. On the procedure:
(§1) Binding to selected ephrin receptors was measured by surface plasmon resonance on a Biacore3000 instrument. Commercially available ephrin receptors: EphA2, EphB2 and EphB4 (R&D Systems) were immobilized on a CM-5 chip by amine coupling and tested peptides were passed over a chip surface as analytes.
(§2) Binding studies. Binding studies were performed by surface plasmon resonance (SPR) on a BIAcore 3000 system (BiaCore AB, Piscataway, N.J.). BIAcore CM5 sensor chips were utilized in all experiments. Binding studies were performed in HBS-EP running buffer (pH=7.4) containing 10 mM HEPES, 150 mM NaCl, 3 mM EDTA, and 0.005% polysorbate 20. Commercially available ephrin receptors: EphA2, EphB2 and EphB4 (R&D Systems, Inc., Minneapolis, Minn.) were immobilized on a CM5 sensor chip using the amine coupling method. The chip was activated by mixing 400 mM N-ethyl-N-(3-dimethylaminopropyl)-carbodiimide hydrochloride and 100 mM N-hydroxysuccinimide. Residual reactive groups on the chip surface were blocked using 1.0 M ethanolamine/HCl (pH=8.5). The flow cell-1 chip, which served as a control, lacked immobilized protein but was treated with N-ethyl-N-(3-dimethylaminopropyl)-carbodiimide hydrochloride, N hydroxysuccinimide, and ethanolamine/HCl. Binding signals were corrected for nonspecific binding by subtracting the flow cell-1 signal (blank surface). To regenerate chip surfaces, bound ligands were removed with 10 mM HCl. Data were analyzed with BIAevaluation 4.1 software (Biacore, Piscataway, N.J.).
(In SPR one partner is held on a chip, and binding of the other changes the refractive index at the surface.)

The target in assay [2] is rhEphA2 (Homo sapiens, UniProt P29317). Nature of the assay: SPR binding to immobilized rhEphA2 (Biacore 3000). The arrangement: purchased R&D Systems, Inc., Minneapolis, Minn. On the procedure:
as §1, §2

The target in assay [3] is T1, rhEphB4 (Homo sapiens, UniProt P54760).
T1 construct: purchased R&D Systems, Inc., Minneapolis, Minn
T1 sequence (P54760 16-987): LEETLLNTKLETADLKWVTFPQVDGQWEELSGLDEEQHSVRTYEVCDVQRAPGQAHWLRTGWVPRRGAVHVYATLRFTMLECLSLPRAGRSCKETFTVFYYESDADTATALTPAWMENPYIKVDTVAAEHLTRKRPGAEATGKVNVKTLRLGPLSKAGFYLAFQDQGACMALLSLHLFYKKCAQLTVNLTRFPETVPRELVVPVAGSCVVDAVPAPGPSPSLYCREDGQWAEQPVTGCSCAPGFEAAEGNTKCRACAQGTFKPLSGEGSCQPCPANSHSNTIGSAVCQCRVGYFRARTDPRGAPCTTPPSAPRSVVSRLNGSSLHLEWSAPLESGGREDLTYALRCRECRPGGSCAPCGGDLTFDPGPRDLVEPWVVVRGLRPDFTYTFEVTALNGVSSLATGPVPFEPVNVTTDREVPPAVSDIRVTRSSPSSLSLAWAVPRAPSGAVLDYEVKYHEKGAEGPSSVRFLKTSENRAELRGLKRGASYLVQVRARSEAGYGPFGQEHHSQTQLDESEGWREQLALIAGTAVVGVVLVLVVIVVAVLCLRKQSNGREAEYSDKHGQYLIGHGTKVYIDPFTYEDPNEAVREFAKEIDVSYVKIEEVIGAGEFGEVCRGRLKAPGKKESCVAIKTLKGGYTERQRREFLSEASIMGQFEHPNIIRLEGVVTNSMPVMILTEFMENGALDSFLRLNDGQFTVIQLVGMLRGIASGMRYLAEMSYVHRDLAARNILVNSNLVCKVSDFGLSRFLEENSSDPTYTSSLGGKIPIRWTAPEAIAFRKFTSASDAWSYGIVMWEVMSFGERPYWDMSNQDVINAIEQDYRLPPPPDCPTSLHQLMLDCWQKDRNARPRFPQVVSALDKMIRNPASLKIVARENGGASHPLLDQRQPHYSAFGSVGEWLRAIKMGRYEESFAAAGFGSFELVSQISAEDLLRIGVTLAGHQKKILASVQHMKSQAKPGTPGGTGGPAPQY
The assay can be described thus: SPR binding to immobilized rhEphB4 (Biacore 3000). Here is the method:
as §1, §2

For `C[C@@H](O)[C@@H]1NC(=O)[C@H](CCCNC(=N)N)NC(=O)[C@H](Cc2c[nH]cn2)NC(=O)CNC(=O)[C@@H]2C[C@@H]3CCCC[C@@H]3N2C(=O)[C@H](CC2CCCCC2)NC(=O)[C@H](C(C)(C)C)NC(=O)[C@@H](NC(=O)[C@H](CC2CCCCC2)NC(=O)[C@H](CC2CCCCC2)NC(=O)[C@H](CCCCN)NC(=O)[C@@H](N)Cc2ccc(O)cc2)CSSC[C@@H](C(=O)N[C@@H](CCCCN)C(N)=O)NC(=O)[C@H](CC2CCCCC2)NC1=O` [AzV31] (H-YK[Cha][Cha]C[Tle][Cha][Oic]GHRT[Cha]CK-NH2; disulfide 5-14; N-terminus assumed), the Kd was 192 ± 24 nM in assay [1] (SPR, averaged from at least 4 independent experiments, read-out: KD ± SEM, rhEphB2/Fc); 196 ± 25 nM in assay [2] (SPR, averaged from at least 4 independent experiments, read-out: KD ± SEM, rhEphA2); 146 ± 14 nM in assay [3] (SPR, averaged from at least 4 independent experiments, read-out: KD ± SEM, rhEphB4).
In the case of `C[C@@H](O)[C@@H]1NC(=O)[C@H](CCCNC(=N)N)NC(=O)[C@H](Cc2c[nH]cn2)NC(=O)[C@@H](CCCNC(=N)N)NC(=O)[C@@H]2C[C@@H]3CCCC[C@@H]3N2C(=O)[C@H](CC2CCCCC2)NC(=O)[C@H](C(C)(C)C)NC(=O)[C@@H](NC(=O)[C@H](CC2CCCCC2)NC(=O)[C@H](CC2CCCCC2)NC(=O)[C@H](CCCCN)NC(=O)[C@@H](N)Cc2ccc(O)cc2)CSSC[C@@H](C(=O)N[C@H](CCCCN)C(N)=O)NC(=O)[C@H](CC2CCCCC2)NC1=O` [AzV32] (H-YK[Cha][Cha]C[Tle][Cha][Oic][dR]HRT[Cha]C[dK]-NH2; disulfide 5-14), the values for the Kd in assay [1], in assay [2] and in assay [3] were 471 ± 160 nM, 169 ± 29 nM and 197 ± 90 nM, respectively.
With `C[C@@H](O)[C@@H]1NC(=O)[C@H](CCCNC(=N)N)NC(=O)[C@H](Cc2c[nH]cn2)NC(=O)CNC(=O)[C@@H]2C[C@@H]3CCCC[C@@H]3N2C(=O)[C@H](CC2CCCCC2)NC(=O)[C@@H](CCCNC(=N)N)NC(=O)[C@@H](NC(=O)[C@H](CC2CCCCC2)NC(=O)[C@H](CC2CCCCC2)NC(=O)[C@H](CCCCN)NC(=O)[C@@H](N)Cc2ccc(O)cc2)CSSC[C@@H](C(=O)N[C@H](CCCCN)C(N)=O)NC(=O)[C@H](CC2CCCCC2)NC1=O` [AzV33] (H-YK[Cha][Cha]C[dR][Cha][Oic]GHRT[Cha]C[dK]-NH2; disulfide 5-14), the Kd in assay [1] stood at 106 ± 12 nM; in assay [2] it was 100 ± 21 nM; in assay [3], 78.6 ± 4.5 nM.
Regarding `C[C@@H](O)[C@@H]1NC(=O)[C@H](CCCNC(=N)N)NC(=O)[C@H](Cc2c[nH]cn2)NC(=O)CNC(=O)[C@@H]2C[C@@H]3CCCC[C@@H]3N2C(=O)[C@H](CC2CCCCC2)NC(=O)[C@H](C(C)(C)C)NC(=O)[C@@H](NC(=O)[C@H](CC2CCCCC2)NC(=O)[C@H](CC2CCCCC2)NC(=O)[C@@H](CCCCN)NC(=O)[C@@H](N)Cc2ccc(O)cc2)CSSC[C@@H](C(=O)N[C@H](CCCCN)C(N)=O)NC(=O)[C@H](CC2CCCCC2)NC1=O` [AzV34] (H-Y[dK][Cha][Cha]C[Tle][Cha][Oic]GHRT[Cha]C[dK]-NH2; disulfide 5-14), the results for the Kd in assay [1], in assay [2] and in assay [3] were 189 ± 21 nM, 196 ± 21 nM and 135 ± 21 nM, respectively.
On to `C[C@@H](O)[C@@H]1NC(=O)[C@H](CCCNC(=N)N)NC(=O)[C@H](Cc2c[nH]cn2)NC(=O)[C@@H](CCCNC(=N)N)NC(=O)[C@@H]2C[C@@H]3CCCC[C@@H]3N2C(=O)[C@H](CC2CCCCC2)NC(=O)[C@@H](CCCNC(=N)N)NC(=O)[C@@H](NC(=O)[C@H](CC2CCCCC2)NC(=O)[C@H](CC2CCCCC2)NC(=O)[C@H](CCCCN)NC(=O)[C@@H](N)Cc2ccc(O)cc2)CSSC[C@@H](C(=O)N[C@H](CCCCN)C(N)=O)NC(=O)[C@H](CC2CCCCC2)NC1=O` [AzV35] (H-YK[Cha][Cha]C[dR][Cha][Oic][dR]HRT[Cha]C[dK]-NH2; disulfide 5-14), for which the Kd in assay [1] was determined as 147 ± 19 nM; in assay [2] it was 126 ± 22 nM; in assay [3], 73.5 ± 3.7 nM.
Taken in the same sequence, the figures for `C[C@@H](O)[C@@H]1NC(=O)[C@H](CCCNC(=N)N)NC(=O)[C@H](Cc2c[nH]cn2)NC(=O)[C@@H](CCCNC(=N)N)NC(=O)[C@@H]2C[C@@H]3CCCC[C@@H]3N2C(=O)[C@H](CC2CCCCC2)NC(=O)[C@H](C(C)(C)C)NC(=O)[C@@H](NC(=O)[C@H](CC2CCCCC2)NC(=O)[C@H](CC2CCCCC2)NC(=O)[C@@H](CCCCNC(=O)c2cccnc2)NC(=O)[C@@H](N)Cc2ccc(O)cc2)CSSC[C@@H](C(=O)N[C@H](CCCCN)C(N)=O)NC(=O)[C@H](CC2CCCCC2)NC1=O` [AzV36-Nic, YkNic-Cha-Cha-Cys-Tle-Cha-Oic-rHRT-Cha-Cys-k-CONH] (H-Y[dK](Nicotinoyl)[Cha][Cha]C[Tle][Cha][Oic][dR]HRT[Cha]C[dK]-NH2; disulfide 5-14) were 251 ± 120 nM, 425 ± 226 nM and 138 ± 41 nM.
The like results for `C[C@@H](O)[C@@H]1NC(=O)[C@H](CCCNC(=N)N)NC(=O)[C@H](Cc2c[nH]cn2)NC(=O)CNC(=O)[C@@H]2C[C@@H]3CCCC[C@@H]3N2C(=O)[C@H](CC2CCCCC2)NC(=O)[C@@H](CCCNC(=N)N)NC(=O)[C@@H](NC(=O)[C@H](CC2CCCCC2)NC(=O)[C@H](CC2CCCCC2)NC(=O)[C@@H](CCCCN)NC(=O)[C@@H](N)Cc2ccc(O)cc2)CSSC[C@@H](C(=O)N[C@H](CCCCN)C(N)=O)NC(=O)[C@H](CC2CCCCC2)NC1=O` [AzV37] (H-Y[dK][Cha][Cha]C[dR][Cha][Oic]GHRT[Cha]C[dK]-NH2; disulfide 5-14) were, in that order, 143 ± 37 nM, 152 ± 38 nM and 76 ± 14 nM.
Take `C[C@@H](O)[C@@H]1NC(=O)[C@H](CCCNC(=N)N)NC(=O)[C@H](Cc2c[nH]cn2)NC(=O)[C@@H](CCCNC(=N)N)NC(=O)[C@@H]2C[C@@H]3CCCC[C@@H]3N2C(=O)[C@H](CC2CCCCC2)NC(=O)[C@@H](CCCNC(=N)N)NC(=O)[C@@H](NC(=O)[C@H](CC2CCCCC2)NC(=O)[C@H](CC2CCCCC2)NC(=O)[C@@H](CCCCN)NC(=O)[C@@H](N)Cc2ccc(O)cc2)CSSC[C@@H](C(=O)N[C@H](CCCCN)C(N)=O)NC(=O)[C@H](CC2CCCCC2)NC1=O` [AzV38] (H-Y[dK][Cha][Cha]C[dR][Cha][Oic][dR]HRT[Cha]C[dK]-NH2; disulfide 5-14): the Kd in assay [1] amounted to 101 ± 2.7 nM; in assay [2], 109 ± 3.5 nM; in assay [3] it was 46.3 ± 3.8 nM.

The record behind these values is patent US8716246B2, “Azuvirin peptides” (The Regents of the University of California, priority 2011, dated 2014).
